Measurements published in patent US8119624B2, “Fused phenyl amido heterocyclic compounds” (Pfizer Inc., priority 2006, dated 2012).
Where two headings read alike, the source gives them in different places.

Biological target: T1, Full-length glucokinase (beta cell isoform) (Homo sapiens, UniProt P35557)
T1 construct: Full-length glucokinase (beta cell isoform) was His-tagged at N-terminus; His tag (N); made in house
T1 sequence (P35557 1-465): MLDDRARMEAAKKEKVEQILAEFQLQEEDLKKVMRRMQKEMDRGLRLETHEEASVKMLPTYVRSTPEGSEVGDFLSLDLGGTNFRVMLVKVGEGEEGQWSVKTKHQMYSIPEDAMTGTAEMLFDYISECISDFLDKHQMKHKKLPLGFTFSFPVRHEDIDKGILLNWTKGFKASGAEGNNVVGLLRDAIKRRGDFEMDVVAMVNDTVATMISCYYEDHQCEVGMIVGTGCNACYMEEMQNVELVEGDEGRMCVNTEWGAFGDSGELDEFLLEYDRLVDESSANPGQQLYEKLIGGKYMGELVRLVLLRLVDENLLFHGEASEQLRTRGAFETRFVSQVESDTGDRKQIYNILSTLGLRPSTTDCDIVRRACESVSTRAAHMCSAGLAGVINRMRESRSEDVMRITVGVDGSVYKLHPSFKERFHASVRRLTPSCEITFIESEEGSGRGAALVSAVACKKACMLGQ
Experiment: Glucokinase biochemical assay (PK/LDH-coupled, NADH depletion at 340 nm): % activation, EC50, % max activation
Settings: 5 mM glucose; for EC50: read-out: EC50; for activation at 10 µM: read-out: % Activation at 10 uM; for Emax: read-out: % Max Activation
In short: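 Activation expressed as (Va/Vo−1)×100, where initial rates with and without compound come from NADH depletion at 340 nm over 200–900 s. Enzyme is His-tagged human beta-cell GK, full length, run at room temperature in HEPES buffer with 1 mM ATP and 5 mM glucose. DMSO 1%.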

[1] = 10 uM compound, % Activation=(Va/Vo−1)×100

| activation at 10 µM [1] [%] | EC50 (GK activation) [nM] | Emax (fitted maximum activation) [%] | SMILES | other results |
| --- | --- | --- | --- | --- |
|  |  |  | Cc1ccc(NC(=O)c2cc(Oc3ccc(S(C)(=O)=O)cc3)c3c(c2)C(=O)N(C2CC2)C3)nc1 [Example 385, 2-Cyclopropyl-N-(5-methylpyridin-2-yl)-7-(4-(methylsulfonyl)-phenoxy)-3-oxoisoindoline-5-carboxamide] | EC50 (1 mM ATP, room temperature): 4500 nM; activation at 10 µM (compound at 10 uM, 1 mM ATP, room temperature): 93.2%; Emax (fitted maximum activation, 1 mM ATP): 107% |
| 102 | 1300 | 116 | Cc1cc(NC(=O)c2cc(Oc3ccc(S(C)(=O)=O)cc3)c3c(c2)OC(C)(C)C3)no1 [Example 25, 4-(4-Methanesulfonyl-phenoxy)-2,2-dimethyl-2,3-dihydro-benzofuran-6-carboxylic acid(5-methyl-isoxazol-3-yl)-amide] |  |
| 143 | 680 | 129 | Cn1ccc(NC(=O)c2cc(Oc3ccc(C(=O)N4CC(O)C4)c(F)c3)c3c(c2)OC(C)(C)C3)n1 [Example 55, 4-[3-Fluoro-4-(3-hydroxy-azetidine-1-carbonyl)-phenoxy]-2,2-dimethyl-2,3-dihydro-benzofuran-6-carboxylic acid(1-methyl-1H-pyrazol-3-yl)-amide] |  |
| 92.7 | 2100 | 87 | Cc1ccc(NC(=O)c2cc(Oc3ccc(S(C)(=O)=O)cn3)c3cc(C)oc3c2)nc1 [Example 281, 2-Methyl-N-(5-methylpyridin-2-yl)-4-(5-(methylsulfonyl)pyridin-2-yloxy)-benzofuran-6-carboxamide] |  |
| 115 | 470 | 106 | CN(C)C(=O)c1ccc(Oc2cc(C(=O)Nc3ccon3)cc3c2CC(C)(C)O3)cc1 [Example 158, 4-(4-Dimethylcarbamoyl-phenoxy)-2,2-dimethyl-2,3-dihydro-benzofuran-6-carboxylic acid isoxazol-3-ylamide] |  |
| 43.1 | > 10000 |  | CC(C)Oc1cc(C(=O)Nc2ccn(C)n2)cc2c1CC(CN(C)C)O2 (stereo not shown) [Example 218, 2-Dimethylaminomethyl-4-isopropoxy-2,3-dihydro-benzofuran-6-carboxylic acid (1-methyl-1H-pyrazol-3-yl)-amide] |  |
| 16.6 |  |  | Cc1ccc(NC(=O)c2cc(OC(C)C)cc3oc(C(C)C)cc23)nc1 [Example 348, 6-Isopropoxy-2-isopropyl-N-(5-methylpyridin-2-yl)benzofuran-4-carboxamide] |  |
|  | 490 |  | COCC1(C)Cc2c(Oc3ccc(S(=O)(=O)C4CC4)cc3)cc(C(=O)Nc3ccn(C)n3)cc2O1 (single isomer, unassigned; (+)) [Example 248, (+)-4-(4-Cyclopropanesulfonyl-phenoxy)-2-methoxymethyl-2-methyl-2,3-dihydro-benzofuran-6-carboxylic acid (1-methyl-1H-pyrazol-3-yl)-amide] | % Activation at 10 uM [1]: 222%; % Max Activation (fitted maximum activation): 225% |
| 25.9 |  |  | Cc1cc2c(Oc3ccc(C(=O)N(C)C)c(F)c3)cc(C(=O)Nc3ccn(C)n3)cc2s1 [Example 362, 4-(4-(Dimethylcarbamoyl)-3-fluorophenoxy)-2-methyl-N-(1-methyl-1H-pyrazol-3-yl)benzo[b]thiophene-6-carboxamide] |  |
| 198 | 620 | 230 | Cn1ncc(NC(=O)c2cc(Oc3ccc(-c4ncon4)cc3)c3c(c2)OC(C)(C)C3)n1 [Example 188, 2,2-Dimethyl-4-(4-[1,2,4]oxadiazol-3-yl-phenoxy)-2,3-dihydro-benzofuran-6-carboxylic acid (2-methyl-2H-[1,2,3]triazol-4-yl)-amide] |  |
| 159 | 68 | 148 | Cn1ccc(NC(=O)c2cc(Oc3cnc(C(=O)N4CCC4)c(F)c3)c3c(c2)OC(C)(C)C3)n1 [Example 173, 4-[6-(Azetidine-1-carbonyl)-5-fluoro-pyridin-3-yloxy]-2,2-dimethyl-2,3-dihydro-benzofuran-6-carboxylic acid (1-methyl-1H-pyrazol-3-yl)-amide] |  |
